Read-outs that look alike come from different tables or passages of the source.
Legend:
[1] = tested on: HCV 1a-H77 subgenomic replicon; assay: microbe, parasite or virus in culture; format: cell-based, HCV genotype 1a; settings: Hepatitis C virus, stable replicon
[2] = tested on: HCV 1a-H77 C316Y mutant subgenomic replicon; assay: Stable replicon cell culture assay (luciferase), 1a-H77-C316Y mutant; format: cell-based, HCV genotype 1a; settings: for EC50: Hepatitis C virus, read-out: Stable Replicon 1a H77-C316Y 5% FBS EC50; for Stable Replicon Fold Resistance C316Y/1a: ratio of stable replicon EC50s, C316Y / 1a H77
[3] = tested on: HCV 1b-BB7 subgenomic replicon; assay: microbe, parasite or virus in culture; format: cell-based, HCV genotype 1b; settings: Hepatitis C virus, stable replicon
[4] = tested on: HCV 1b-Con1 subgenomic replicon; assay: Stable replicon cell culture assay (luciferase), 1b-Con1; 5% FBS, optionally 40% human plasma; format: cell-based, HCV genotype 1b; settings: Hepatitis C virus
[5] = 5% FBS, absence of human plasma, read-out: Stable Replicon 1a H77 5% FBS EC50
[6] = strain 1a H77, 5% FBS + 40% human plasma, read-out: 1a H77 5% FBS + 40% Human Plasma EC50
[7] = strain 1a H77, 5% FBS, no human plasma, read-out: 1a H77 5% FBS EC50
[8] = strain 1a H77, 5% FBS, read-out: 1a H77 5% FBS EC50
[9] = strain 1b BB7, 5% FBS + 40% human plasma, read-out: 1b BB7 5% FBS + 40% Human Plasma EC50
[10] = strain 1b BB7, 5% FBS, no human plasma, read-out: 1b BB7 5% FBS EC50
[11] = strain 1b BB7, 5% FBS, read-out: 1b BB7 5% FBS EC50
[12] = strain 1b Con1, 5% FBS + 40% human plasma, read-out: 1b Con1 5% FBS + 40% Human Plasma EC50
[13] = strain 1b Con1, 5% FBS, no human plasma, read-out: 1b Con1 5% FBS EC50
[14] = strain 1b Con1, 5% FBS, read-out: 1b Con1 5% FBS EC50

Row | SMILES | EC50 [1, 5] | EC50 [1, 6] | EC50 [1, 7] | EC50 [1, 8] | EC50 [2] | Stable Replicon Fold Resistance C316Y/1a [2] | EC50 [3, 9] | EC50 [3, 10] | EC50 [3, 11] | EC50 [4, 12] | EC50 [4, 13] | EC50 [4, 14]
1 | CS(=O)(=O)N(CCO)c1cc2oc(-c3ccc(F)cc3)c(-c3ncc[nH]3)c2cc1C1CC1 [Example 109, N-[5-cyclopropyl-2-(4-fluorophenyl)-3-(1H-imidazol-2-yl)-1-benzofuran-6-yl]-N-(2-hydroxyethyl)methanesulfonamide] | 19.8 nM | 420 nM | 19.8 nM | 19.8 nM | 467 nM | 23.6 fold | 184 nM | 12.7 nM | 12.7 nM |  |  | 
2 | CS(=O)(=O)N(CCO)c1cc2oc(-c3ccc(F)cc3)c(C3=NOCCN3)c2cc1C1CC1 [Example 136, N-[5-cyclopropyl-3-(5,6-dihydro-4H-1,2,4-oxadiazin-3-yl)-2-(4-fluorophenyl)-1-benzofuran-6-yl]-N-(2-hydroxyethyl)methanesulfonamide] | 26.6 nM | 347 nM | 26.6 nM | 26.6 nM | 561 nM | 42.0 fold | 281 nM | 35 nM | 35 nM |  |  | 
3 | CCCC/C=C/c1ccc(-c2oc3cc(N(CCCCS(C)(=O)=O)S(C)(=O)=O)c(C4CC4)cc3c2-c2ncc[nH]2)cc1 [Example 168, N-[5-cyclopropyl-2-{4-[(1E)-hex-1-en-1-yl]phenyl}-3-(1H-imidazol-2-yl)-1-benzofuran-6-yl]-N-[4-(methylsulfonyl)butyl]methanesulfonamide] | 1.8 nM | 18.4 nM | 1.8 nM | 1.8 nM | 17.6 nM | 9.72 fold |  |  |  | 24.3 nM | 3.4 nM | 3.4 nM
4 | CS(=O)(=O)CCCCN(c1cc2oc(-c3ccc(Nc4ccccc4)cc3)c(-c3ncc[nH]3)c2cc1C1CC1)S(C)(=O)=O [Example 169, N-[2-(4-anilinophenyl)-5-cyclopropyl-3-(1H-imidazol-2-yl)-1-benzofuran-6-yl]-N-[4-(methylsulfonyl)butyl]methanesulfonamide] | 2.1 nM | 14.8 nM | 2.1 nM | 2.14 nM | 11.4 nM | 5.33 fold |  |  |  | 34.4 nM | 5 nM | 4.5 nM

Source: US20160355530A1, “HEPATITIS C INHIBITORS AND USES THEREOF” (AbbVie Inc., priority 2010, published 2016)
